# From patent US6875758B2, “Method of treating hyperlipidemic and hyperglycemic conditions in mammals using pregnadienols and pregnadienones” (Council of Scientific & Industrial Research, priority 1999, dated 2005)
# Values joined by “and” are separate entries in the source; they are usually repeats but may differ in a detail not shown here. Equal values may be shown once.
# How the values were obtained:
# [1] = test system: Human serum LDL; assay: Cu2+ induced oxidation of low density lipoprotein (TBA reactive lipid peroxides); format: biochemical; conditions: for MDA (Exp.): 16 hr at 37° C., pH 7.4
# Protocol: Human serum LDL was oxidized with Cu^′2 in different concentrations of test compound in 0.05 mole PBS, pH 7.4 for 16 hr at 37° C. Thiobarbituric acid reactive lipid peroxides are measured by standard procedure. […] Cu^′2 induced oxidation in LDL lipids are mainly due to the free OH radical during incubation.
# [2] = Hydroxy (OH) radical formation in nonenzymatic system (Fe2+, ascorbate, H2O2, deoxyribose); format: biochemical
# [3] = test system: hyperlipidemic male albino rabbits; assay: Hypolipidemic activity in cholesterol fed hyperlipidemic rabbits (90 days); format: in vivo
# Protocol: Effect of 3β-Hydroxypregna-5,16-dien-20-one (2) was studied on hypercholesterolemic albino rabbits. Twelve male albino rabbits (approx 1.5-2 kg) on a stock diet were made hyperlipidemic by feeding daily cholesterol 0.5 g/kg in 2 ml of groundnut oil for 45 days and then blood was drawn from the marginal vein in the ear of rabbits for serum cholesterol and triglycerides estimation.
# Two controlled experiments were carried out for a period of three months. In one set of experiments, the control group received 0.5 g/kg of cholesterol for 90 days and 3β-Hydroxypregna-5,16-dien-20-one (2) in dose of 100 mg/kg and 50 mg/kg while in control group (given only cholesterol) a massive rise of serum cholesterol and triglycerides were seen after 90 days, the addition of 3β-Hydroxypregna-5,16dien-20-one (2) at 50 and 100 mg/kg doses kept the rise well under control. The percentage decrease at 100 mg dose was 28% at 30 days to 52% at 90 days for cholesterol and 45 to 81% for triglycerides. In the 50 mg/kg dose group the decrease percentage ranged from 40% at 30 days to 50% at 90 days for cholesterol and 45% at 30 days to 75% at 90 days for triglyceride (Table6)
# [4] = test system: Rhesus monkeys; assay: Hypolipidemic activity in Rhesus monkeys; format: in vivo; conditions: for S. Triglycerides % Fall: day 60 vs day 0; for HDL-Cholesterol % Change / LDL-Cholesterol % Fall / S. Cholesterol % Fall: day 90 vs day 0
# Protocol: In Rhesus monkeys: 3β-Hydroxypregna-5,16-dien-20one (2) was administered orally daily for 90 days in doses of 62.5, 125 or 650 mg/kg to different group of animals. Significant decrease in serum cholesterol was observed (45-52%).
# [5] = 50 mg/kg + cholesterol 0.5 g/kg, day 30
# [6] = 50 mg/kg + cholesterol 0.5 g/kg, day 60
# [7] = 50 mg/kg + cholesterol 0.5 g/kg, day 90
# [8] = 100 mg/kg + cholesterol 0.5 g/kg, day 30
# [9] = 100 mg/kg + cholesterol 0.5 g/kg, day 60
# [10] = 100 mg/kg + cholesterol 0.5 g/kg, day 90
# [11] = 62.5, 125 or 650 mg/kg orally daily for 90 days
structure (smiles),measurement,setting,value
"CC(=O)C1=CC[C@H]2[C@@H]3CC=C4C[C@@H](O)CC[C@]4(C)[C@H]3CC[C@]12C [Compound 2, 3β-Hydroxypregna-5,16-dien-20-one]",% inhibition of LDL oxidation,[1]; 2.5 μmol/ml,(26) %
same,MDA (Exp.),[1]; 2.5 μmol/ml,41.4 ± 1.7 n mol MDA/mg protein
same,% inhibition of LDL oxidation,[1]; 5.0 μmol/ml,(49) %
same,MDA (Exp.),[1]; 5.0 μmol/ml,28.7 ± 4.0 n mol MDA/mg protein
same,% inhibition of LDL oxidation,[1]; 10.0 μmol/ml,(74) %
same,MDA (Exp.),[1]; 10.0 μmol/ml,10.6 ± 0.5 n mol MDA/mg protein
same,% inhibition of LDL oxidation,[1]; 20 μmol/ml,(89) %
same,MDA (Exp.),[1]; 20 μmol/ml,4.0 ± 0.5 n mol MDA/mg protein
same,generation of LDL lipid peroxide (in words),[1]; tested concentrations,inhibit the generation of LDL lipid peroxide in concentration dependent manner
same,generation of OH radical (in words),[2],inhibits the generation of OH radical in concentration dependent manner
same,% inhibition of OH radical formation,[2]; 5 μmol/ml,(28) %
same,OH radical formation,[2]; 5 μmol/ml,65.0 ± 5.4 nmol MDA/hr
same,% inhibition of OH radical formation,[2]; 10 μmol/ml,(42) %
same,OH radical formation,[2]; 10 μmol/ml,52.8 ± 4.2 nmol MDA/hr
same,% inhibition of OH radical formation,[2]; 20 μmol/ml,(74) %
same,OH radical formation,[2]; 20 μmol/ml,23.3 ± 1.8 nmol MDA/hr
same,% inhibition of OH radical formation,[2]; 30 μmol/ml,(87) %
same,OH radical formation,[2]; 30 μmol/ml,11.7 ± 1.3 nmol MDA/hr
same,% inhibition of OH radical formation,[2]; 40 μmol/ml,(88) %
same,OH radical formation,[2]; 40 μmol/ml,10.4 ± 2.0 nmol MDA/hr
same,% inhibition of OH radical formation,[2]; 50 μmol/ml,(90) %
same,OH radical formation,[2]; 50 μmol/ml,9.9 ± 0.8 nmol MDA/hr
same,S. Cholesterol,[3]; [5],190.5 mg %
same,S. Triglycerides,[3]; [5],79.5 mg %
same,S. Cholesterol,[3]; [6],305.5 mg %
same,S. Triglycerides,[3]; [6],67.0 mg %
same,S. Cholesterol,[3]; [7],660.3 mg %
same,S. Triglycerides,[3]; [7],56.5 mg %
same,S. Cholesterol % Decrease vs cholesterol control,"[3]; 50 mg/kg, day 30",40%
same,S. Triglycerides % Decrease vs cholesterol control,"[3]; 50 mg/kg, day 30",45%
same,S. Cholesterol % Decrease vs cholesterol control,"[3]; 50 mg/kg, day 60",43%
same,S. Triglycerides % Decrease vs cholesterol control,"[3]; 50 mg/kg, day 60",64%
same,S. Cholesterol % Decrease vs cholesterol control,"[3]; 50 mg/kg, day 90",50% and 51%
same,S. Triglycerides % Decrease vs cholesterol control,"[3]; 50 mg/kg, day 90",75% and 76%
same,S. Cholesterol,[3]; [8],213.3 mg %
same,S. Triglycerides,[3]; [8],79.0 mg %
same,S. Cholesterol,[3]; [9],309.3 mg %
same,S. Triglycerides,[3]; [9],54.0 mg %
same,S. Cholesterol,[3]; [10],633.7 mg %
same,S. Triglycerides,[3]; [10],44.2 mg %
same,S. Cholesterol % Decrease vs cholesterol control,"[3]; 100 mg/kg, day 30",28%
same,S. Triglycerides % Decrease vs cholesterol control,"[3]; 100 mg/kg, day 30",45% and 46%
same,S. Cholesterol % Decrease vs cholesterol control,"[3]; 100 mg/kg, day 60",42%
same,S. Triglycerides % Decrease vs cholesterol control,"[3]; 100 mg/kg, day 60",64%
same,S. Cholesterol % Decrease vs cholesterol control,"[3]; 100 mg/kg, day 90",52% and 53%
same,S. Triglycerides % Decrease vs cholesterol control,"[3]; 100 mg/kg, day 90",81%
same,S. Cholesterol,"[4]; 62.5 mg/kg orally daily, day 0",156.8 ± 23.0 mg/dL
same,S. Triglycerides,"[4]; 62.5 mg/kg orally daily, day 0",77.5 ± 7.0 mg/dL
same,S. Triglycerides,"[4]; 62.5 mg/kg orally daily, day 60",66.3 ± 6.9 mg/dL
same,S. Cholesterol,"[4]; 62.5 mg/kg orally daily, day 90",83.3 ± 8.5 mg/dL
same,HDL-Cholesterol,"[4]; 62.5 mg/kg, day 0",50.0 ± 4.5 mg/dL
same,LDL-Cholesterol,"[4]; 62.5 mg/kg, day 0",91.8 ± 27.0 mg/dL
same,S. Triglycerides % Fall,[4]; 62.5 mg/kg,14%
same,HDL-Cholesterol,"[4]; 62.5 mg/kg, day 90",45.0 ± 2.5 mg/dL
same,LDL-Cholesterol,"[4]; 62.5 mg/kg, day 90",24.3 ± 8.0 mg/dL
same,HDL-Cholesterol % Change,[4]; 62.5 mg/kg,−8%
same,LDL-Cholesterol % Fall,[4]; 62.5 mg/kg,75%
same,S. Cholesterol % Fall,[4]; 62.5 mg/kg,47%
same,S. Cholesterol,"[4]; 125 mg/kg orally daily, day 0",133.3 ± 8.5 mg/dL
same,S. Triglycerides,"[4]; 125 mg/kg orally daily, day 0",69.8 ± 9.9 mg/dL
same,S. Triglycerides,"[4]; 125 mg/kg orally daily, day 60",60.0 ± 2.9 mg/dL
same,S. Cholesterol,"[4]; 125 mg/kg orally daily, day 90",65.8 ± 2.2 mg/dL
same,HDL-Cholesterol,"[4]; 125 mg/kg, day 0",46.3 ± 2.0 mg/dL
same,LDL-Cholesterol,"[4]; 125 mg/kg, day 0",63.5 ± 7.4 mg/dL
same,S. Triglycerides % Fall,[4]; 125 mg/kg,13%
same,HDL-Cholesterol,"[4]; 125 mg/kg, day 90",50.8 ± 0.5 mg/dL
same,LDL-Cholesterol,"[4]; 125 mg/kg, day 90",4.6 ± 0.9 mg/dL
same,HDL-Cholesterol % Change,[4]; 125 mg/kg,+10%
same,LDL-Cholesterol % Fall,[4]; 125 mg/kg,90%
same,S. Cholesterol % Fall,[4]; 125 mg/kg,50%
same,S. Cholesterol,"[4]; 650 mg/kg orally daily, day 0",132.8 ± 6.4 mg/dL
same,S. Triglycerides,"[4]; 650 mg/kg orally daily, day 0",90.5 ± 3.9 mg/dL
same,S. Triglycerides,"[4]; 650 mg/kg orally daily, day 60",58.5 ± 3.8 mg/dL
same,S. Cholesterol,"[4]; 650 mg/kg orally daily, day 90",63.3 ± 2.3 mg/dL
same,HDL-Cholesterol,"[4]; 650 mg/kg, day 0",39.3 ± 1.3 mg/dL
same,LDL-Cholesterol,"[4]; 650 mg/kg, day 0",72.7 ± 8.4 mg/dL
same,S. Triglycerides % Fall,[4]; 650 mg/kg,36%
same,HDL-Cholesterol,"[4]; 650 mg/kg, day 90",41.8 ± 0.9 mg/dL
same,LDL-Cholesterol,"[4]; 650 mg/kg, day 90",13.1 ± 0.7 mg/dL
same,HDL-Cholesterol % Change,[4]; 650 mg/kg,+6%
same,LDL-Cholesterol % Fall,[4]; 650 mg/kg,82%
same,S. Cholesterol % Fall,[4]; 650 mg/kg,53%
same,changes in HDL-cholesterol,[4]; [11],not significant
same,decrease in low density lipoprotein,[4]; [11],75-90%
same,decrease in serum cholesterol,[4]; [11],45-52%
